These results are taken from article PMC11741150, “Synthesis and In Vitro Antileishmanial Efficacy of Novel Ethylene Glycol Analogues of Benzothiadiazine‐1,1‐dioxide” (Chemistry & Biodiversity, 2024).

“Also recorded” adds a separate entry of the source. Read-outs that look alike come from different tables or passages of the source.

Experiment [1] relates to Vero cells. Description: Cytotoxicity resazurin assay. As to conditions: Chlorocebus sabaeus, 48 hours, ±standard deviation, maximum concentration 2 mM. The class given is cell-based. As to the method: The cytotoxicity of the synthesised compounds was evaluated using the resazurin assay. The assay involves live cells converting oxidized blue resazurin dye to pink, highly fluorescent resorufin through irreversible enzymatic reduction.[44] This non‐toxic reagent is a useful instrument for determining drug toxicity and cell growth.
Dulbecco's modified Eagle's medium (DMEM) with high glucose (Separations) supplemented with 1 % L‐glutamine, non‐essential amino acids, and penicillin‐streptomycin (Sigma Aldrich), and 10 % fetal bovine serum (Thermofisher Scientific) was used to cultivate Vero cells. The cells were kept at 37 °C and 5 % CO2 in a humidified environment. For the assay, 96 well plates were prepared by pipetting 100 μL of cell suspension (60 000 cells/mL) per well and incubating the plates for 24 hours. The cells were then treated with seven two‐fold concentration dilutions of: (1) 1 μM emetine dihydrochloride (Sigma Aldrich) solution (positive control); (2) 2 mM experimental compound solutions. Cell‐free growth medium was included as a blank. The treated plates were incubated for 48 hours.
To initiate the resazurin assay, 50 μL of sterile‐filtered resazurin sodium salt (Sigma Aldrich) solution (0.01 % in phosphate‐buffered saline (PBS)) was added to the prepared plates and then incubated for 2 hours. A Thermofisher Scientific's GO Multiscan plate reader was used to measure the absorbance at 570 and 600 nm. SkanIt 4.0 Research Edition software was used to perform the data analysis for every biological replicate. After subtracting background absorbance (600 nm) from the 570 nm absorbance data, the mean absorbance was computed, and the percentage of viable cells was estimated using the formula below: Cellviability%=(ΔAbssample-ΔAbsblank)/(ΔAbsnegcontrol-ΔAbsblank)X100
GraphPad Prism 5 was used to calculate the IC50 and Z‐score for each compound's biological replicate. The mean IC50 of the biological replicates and standard deviation (SD) was calculated to determine the final IC50 of each compound.

Experiment [2] relates to L. major (strain NIH S (MHOM/SN/74/Seidman)) promastigotes. Description: Antipromastigote resazurin assay. The experiment is classed as cell-based, Leishmania major. The following applies: for IC50: promastigotes, maximum concentration 2 mM, ±standard deviation; for inhibition at 10 µM: L. major strain IR‐173 (as headed) promastigotes, read-out: Antipromastigote growth inhibition (%). (Resazurin is reduced to fluorescent resorufin, in cell work by metabolically active cells.)

Experiment [3] concerns L. donovani strain 9515 intramacrophage amastigotes. Description: Intramacrophage antileishmanial growth inhibition assay. The experiment is classed as cell-based. The following applies: Leishmania donovani, read-out: Anti‐amastigote growth inhibition (%). As to the method:
(§1) A modified resazurin assay[47, 48] and the two Leishmania strains were also used to assess the efficacy of synthesised compounds against intramacrophage parasites.
(§2) Human monocytic leukemia (THP‐1) cells were cultured in RPMI 1640 medium with L‐glutamine (Sigma Aldrich) supplemented with, 1 % penicillin/streptomycin solution (Lonza), 10 % fetal bovine serum (FBS; Thermofisher Scientific) and 2 g/L sodium bicarbonate (Sigma Aldrich). The cells were maintained in a humidified environment at 37 °C and 5 % CO2.
(§3) For the intramacrophage assay, a 500 000 cells/mL THP‐1 cell suspension was prepared, 25 ng/mL phorbol 12‐myristate 13‐acetate (PMA) added and the suspension seeded in 96 well plates (Nunc, Thermofisher Scientific) at 200 μL/well. Cell‐free growth medium was included as the blank. The plates were incubated for 48 hours in a humidified environment at 37 °C and 5 % CO2 to encourage the differentiation of the suspended cells to adherent macrophages.
(§4) To eliminate non‐adherent cells after the PMA treatment, the plates were carefully washed once with warm PBS. Then, a premade promastigote suspension ([…]) was added. The suspension consisted of stationary phase promastigotes in THP‐1 cell growth medium, with a multiplicity of infection (MOI) of 30 : 1. Parasite‐free medium was also added to selected THP‐1 cell‐containing wells to serve as parasite blank. The plates were thoroughly rinsed four times with warm PBS to get rid of extracellular parasites after being cultured for 24 hours to encourage macrophage infection. The cells were then treated with 160 μL of growth medium and 40 μL of either solvent (parasite blank and negative control with parasites) or 40 μL of compound solutions. For a dual‐point activity screening, 10 μM and 2 mM of compound were prepared in separate plates. Amphothericin B (10 μM) served as the standard antileishmanial drug. The plates were incubated for 72 hours in a humidified environment at 37 °C and 5 % CO2.
(§5) For the plates treated with 10 μM of compound, any serum and extracellular promastigotes that remained were carefully removed from the wells by rinsing with warm PBS. The wells were then treated with 20 μL of 0.05 % sodium dodecyl sulphate (SDS; Sigma Aldrich) in PBS for 30 sec to lyse the macrophages. Lysis was terminated with the addition of 180 μL promastigote growth medium with 10 % FBS. For the resazurin assay, 10 μL of resazurin solution (0.025 % in PBS) was added to each well and the plates were further incubated at 37 °C in for 72 hours in the dark to measure amastigote recovery to proliferative promastigotes.
(§6) A Thermofisher Scientific's GO Multiscan plate reader was used to measure absorbance at 570 nm and 600 nm. SkanIt 4.0 Research Edition software was used to perform the data analysis for every biological replicate. Background absorbance (600 nm) was subtracted from the 570 nm absorbance data and the mean absorbance was computed.
(§7) For the activity screening, the following formula was used to determine growth inhibition percentage: Growthinhibition%=100-[(ΔAbssample-ΔAbsblank)/(ΔAbsnegcontrol-ΔAbsblank)X100]

Experiment [4] has as its system Leishmania donovani (strain 9515 (MHOM/IN/95/9515)) promastigotes. Description: Antipromastigote resazurin assay. The experiment is classed as cell-based. The following applies: for IC50: promastigotes, maximum concentration 2 mM, ±standard deviation, read-out: L. donovani 9515 antipromastigote IC50; for inhibition at 10 µM: L. donovani strain 9515 promastigotes, read-out: Antipromastigote growth inhibition (%). The procedure:
The antipromastigote activity of synthesised compounds was evaluated using a modified method of the resazurin assay[45, 46] against two Leishmania strains.
Leishmania donovani (strain 9515 (MHOM/IN/95/9515)) and L. major (strain NIH S (MHOM/SN/74/Seidman)) promastigotes were cultured in M199 with Hank's salts and 0.68 mM L‐glutamine (Sigma Aldrich) supplemented with 0.0005 % hemin, 0.0001 % biotin, 0.1 mM adenine (Sigma Aldrich), 10 % fetal bovine serum, 50 U/mL Penicillin/Streptomycin solution, 4.2 mM sodium bicarbonate and 25 mM Hepes buffer. The promastigotes were maintained at an adjusted pH of 7.3–7.4 growth medium at 26 °C. […] Amphothericin B (10 μM) served as the standard antileishmanial drug and parasite‐free growth medium was included as the blank. The plates were incubated for 48 hours at 26 °C in humidified environment.
Following the initial incubation, 50 μL of resazurin solution (0.01 % in PBS) was added to each well and the plates underwent further incubation at 26 °C for 24 hours in the dark. A Thermofisher Scientific's GO Multiscan plate reader was used to measure absorbance at 570 nm and 600 nm. SkanIt 4.0 Research Edition software was used to perform the data analysis for every biological replicate. Background absorbance (600 nm) was subtracted from the 570 nm absorbance data and the mean absorbance was computed. The cell viability and data analysis were performed as indicated in the cytotoxicity assay.

Experiment [5] relates to L. major intramacrophage amastigotes. In words: Intramacrophage antileishmanial growth inhibition assay. The class given is cell-based, Leishmania major. As to conditions: for host cell and parasite death in L. major anti‐amastigote screening: 2 mM of compound, L. major only; for inhibition at 10 µM: Leishmania major, L. major strain IR‐173 (as headed) intramacrophage amastigotes, read-out: Anti‐amastigote growth inhibition (%). As to the method:
as §1, §2, §3, §4, §5
Any remaining extracellular promastigotes were afterwards carefully removed from the wells by rinsing with warm PBS. The wells were then treated with 50 μL of resazurin solution (0.01 % in PBS) and the plates were further incubated at 37 °C for 4 hours in the dark to assess host cell viability.
as §6, §7

Turning to `CCOCCOCCN1C=Nc2ccccc2S1(=O)=O` [Compound 7, 2‐[2‐(2‐Ethoxyethoxy)ethyl]‐2H‐benzo[e][1,2,4]thiadiazine‐1,1‐dioxide], the IC50 in experiment [1] was 727 ± 61.7 µM; in experiment [2] (Leishmania major), 491 ± 28.6 µM; in experiment [4] (Leishmania donovani) it was 426 ± 34.7 µM. Besides, in experiment [2], the “SI2: Selectivity index=IC50 Vero/L. major antipromastigote IC50” value is reported as 1.48. Also, the inhibition at 10 µM in experiment [2] (Leishmania major), in experiment [3], in experiment [4] (Leishmania donovani) and in experiment [5] was 0% each time. In experiment [4], the “SI1: Selectivity index=IC50 Vero/L. donovani 9515 antipromastigote IC50” value worked out at 1.71. Moreover, the “host cell and parasite death in L. major anti‐amastigote screening” value (shortened to “host cell and parasite death”) in experiment [5] is “both host cell and parasite death; also recorded: killed both parasite and host cell”.
With `C=CCOCCN1C=Nc2ccccc2S1(=O)=O` [Compound 13, 2‐[2‐(Allyloxy)ethyl]‐2H‐benzo[e][1,2,4]thiadiazine‐1,1‐dioxide], the IC50 in experiment [1] amounted to 531 ± 15.7 µM; in experiment [2] (Leishmania major) it was 455 ± 9.55 µM; in experiment [4] (Leishmania donovani), 360 ± 12.5 µM. In experiment [2], the “SI2: Selectivity index=IC50 Vero/L. major antipromastigote IC50” value is recorded as 1.17. Also, the inhibition at 10 µM in experiment [2] (Leishmania major) was 0%; in experiment [3], 0%; in experiment [4] (Leishmania donovani) it was 15%; in experiment [5], 0%. Besides, the “host cell and parasite death” value in experiment [5] was “killed both parasite and host cell”.
Regarding `C[C@@H]1[C@H](O)[C@@H](C)/C=C/C=C/C=C/C=C/C=C/C=C/C=C/[C@H](O[C@@H]2O[C@H](C)[C@@H](O)[C@H](N)[C@@H]2O)C[C@@H]2O[C@](O)(C[C@@H](O)C[C@@H](O)[C@H](O)CC[C@@H](O)C[C@@H](O)CC(=O)O[C@H]1C)C[C@H](O)[C@H]2C(=O)O` [AmB, Amphotericin B, reference compound], the IC50 in experiment [1] was determined as 57.8 ± 3.22 µM; in experiment [4] (Leishmania donovani), 0.02 µM. In addition, the inhibition at 10 µM in experiment [2] (Leishmania major), in experiment [3], in experiment [4] (Leishmania donovani) and in experiment [5] was 100% throughout.
On to `COCCOCCN1C=Nc2ccccc2S1(=O)=O` [Compound 4, 2‐[2‐(2‐Methoxyethoxy)ethyl]‐2H‐benzo[e][1,2,4]thiadiazine‐1,1‐dioxide], for which the IC50 in experiment [1] worked out at 988 ± 10.6 µM; in experiment [2] (Leishmania major), 919 ± 22.3 µM; in experiment [4] (Leishmania donovani), 701.6 ± 4.17 µM. Also, the inhibition at 10 µM in experiment [2] (Leishmania major), in experiment [3], in experiment [4] (Leishmania donovani) and in experiment [5] was 0% in each case.
Turning to `O=[N+]([O-])c1ccc(OCCN2C=Nc3ccccc3S2(=O)=O)cc1` [Compound 12, 2‐[2‐(4‐Nitrophenoxy)ethyl]‐2H‐benzo[e][1,2,4]thiadiazine‐1,1‐dioxide], the IC50 in experiment [1] was found to be 667 ± 58 µM; in experiment [2] (Leishmania major), 783 ± 408 µM; in experiment [4] (Leishmania donovani), 411 ± 27.9 µM. Further, the “SI2: Selectivity index=IC50 Vero/L. major antipromastigote IC50” value in experiment [2] turned out to be 0.85. For the same molecule, the inhibition at 10 µM was found to be 0% in experiment [2] (Leishmania major), 0% in experiment [3], 9% in experiment [4] (Leishmania donovani) and 0% in experiment [5]. Moreover, in experiment [4], the “SI1: Selectivity index=IC50 Vero/L. donovani 9515 antipromastigote IC50” value is 1.62. The “host cell and parasite death” value in experiment [5] was “killed both parasite and host cell”.
Turning to `O=S1(=O)c2ccccc2N=CN1CCOc1ccccc1` [Compound 9, 2‐(2‐Phenoxyethyl)‐2H‐benzo[e][1,2,4]thiadiazine‐1,1‐dioxide], the IC50 in experiment [1] came out at 975.3 ± 3.68 µM; in experiment [2] (Leishmania major), 103 µM; in experiment [2], 104 ± 4.53 µM; in experiment [4] (Leishmania donovani), 153 µM; in experiment [4], 153 ± 7.92 µM. In experiment [2], the “SI2: Selectivity index=IC50 Vero/L. major antipromastigote IC50” value came out at 9.41. Also, the inhibition at 10 µM in experiment [2] (Leishmania major) came out at 58%; in experiment [3], 0%; in experiment [4] (Leishmania donovani), 7%; in experiment [5], 0%. For the same molecule, the “SI1: Selectivity index=IC50 Vero/L. donovani 9515 antipromastigote IC50” value in experiment [4] was determined as 6.36. Moreover, the “host cell and parasite death” value in experiment [5] was “both host cell and parasite death; also recorded: killed both parasite and host cell”.
Regarding `COCCOCCOCCN1C=Nc2ccccc2S1(=O)=O` [Compound 5, 2‐{2‐[2‐(2‐Methoxyethoxy)ethoxy]ethyl}‐2H‐benzo[e][1,2,4]thiadiazine‐1,1‐dioxide], the figures for the half-maximal inhibitory concentration (IC50) in experiment [1] and in experiment [4] (Leishmania donovani) were 999 ± 16.8 µM and 830 ± 10.5 µM, respectively. In addition, the “SI2: Selectivity index=IC50 Vero/L. major antipromastigote IC50” value in experiment [2] was found to be 0.89. The inhibition at 10 µM in experiment [2] (Leishmania major) stood at 0%; in experiment [3], 0%; in experiment [4] (Leishmania donovani) it was 5%; in experiment [5], 0%. Also, the “SI1: Selectivity index=IC50 Vero/L. donovani 9515 antipromastigote IC50” value in experiment [4] was found to be 1.20. Also, in experiment [5], the “host cell and parasite death” value was “both host cell and parasite death”.
`CC[C@H]1CN2CCc3cc(OC)c(OC)cc3[C@@H]2C[C@@H]1C[C@H]1NCCc2cc(OC)c(OC)cc21` [Em, emetine, reference compound] yielded an IC50 in experiment [1] of 0.08 ± 0.01 µM.

The term IC50 denotes the concentration that inhibits the measured activity by half. For orientation: inhibition means the relative decrease from the control value, in per cent.
